As a reminder, the IC50 is the midpoint of a concentration-inhibition curve.

Among the data in US12275729B2 (Merck Sharp & Dohme LLC, priority 2017, dated 2025) are IC50 values, retold here.

Test [1] addresses T1, IDO1 (Homo sapiens, UniProt P14902). Briefly: IDO1 Cellular Assay in HeLa Cells Stimulated with IFNγ. The note with it: read-out: Hela IC50. In kind it is cell-based.
In test [2] the target is T1, IDO1. The experiment in a line: IDO1 Human Whole Blood Assay. The note with it: LPS and IFNγ stimulated. In kind it is cell-based. Also on record: Human whole blood was drawn in sodium heparin coated tubes from healthy internal donors; from tissue; host or cells: human whole blood from healthy donors, stimulated with LPS and IFNγ.

T1 sequence (P14902 whole entry): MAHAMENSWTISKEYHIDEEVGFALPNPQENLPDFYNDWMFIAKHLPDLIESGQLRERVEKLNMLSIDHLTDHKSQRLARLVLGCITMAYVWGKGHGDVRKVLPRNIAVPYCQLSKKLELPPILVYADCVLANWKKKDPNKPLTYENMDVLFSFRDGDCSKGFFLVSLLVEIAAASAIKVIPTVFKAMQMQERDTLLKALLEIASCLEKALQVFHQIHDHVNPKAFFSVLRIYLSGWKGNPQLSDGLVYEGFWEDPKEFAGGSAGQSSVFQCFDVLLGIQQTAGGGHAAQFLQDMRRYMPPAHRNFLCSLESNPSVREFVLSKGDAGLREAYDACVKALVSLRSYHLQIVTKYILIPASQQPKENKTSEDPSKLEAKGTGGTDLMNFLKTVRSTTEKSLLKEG

With `CC(C(=O)Nc1ccc(F)cc1)c1ccc2c(n1)CCCN2C(=O)C1CCCO1` (stereo in doubt) [Example 162, N-(4-fluorophenyl)-2-{5-[(2R)-oxolane-2-carbonyl]-5,6,7,8-tetrahydro-1,5-naphthyridin-2-yl}propanamide], the IC50 stood at 2.7 nM at IDO1 [1] (about 48 hours) and 29 nM against IDO1 [2].
The matching figures for `CC(NC(=O)c1ccc(F)cc1)c1ccc2c(n1)CCCN2Cc1cccc(Cl)c1` (stereo not drawn) [Example 229, N-(1-{5-[(3-chlorophenyl)methyl]-5,6,7,8-tetrahydro-1,5-naphthyridin-2-yl}ethyl)-4-fluorobenzamide]: 3.5 nM and 245 nM.
For the molecule `CC(NC(=O)c1ccc(Cl)cc1)c1ccc2c(n1)CCCN2c1nc(C(F)(F)F)nc2ccccc12` (stereo not drawn) [Example 358, 2-(1-(4-chlorobenzamido)ethyl)-5-(2-(trifluoromethyl)quinazolin-4-yl)-5,6,7,8-tetrahydro-1,5-naphthyridin-1-ium 2,2,2-trifluoroacetate], the concentration for half-maximal inhibition (IC50) on IDO1 [1] came out at 4.24 nM; against IDO1 [2] it was 1000 nM.
